In patent US7494996B2 (priority 2000, dated 2009):

How the values were obtained:
Sphaerotheca fuliginea = assay: Cucumber Powdery Mildew (CPM) protectant test in the greenhouse; type: in vivo; details: 100 is total disease control, 0 is no disease control; for Cucumber Powdery Mildew (CPM) protectant fungicide data, percent control: 300 g/ha; for pest or weed control at 300 g/ha: Podosphaera fuliginea, topical, 168 h, read-out: Cucumber Powdery Mildew (CPM) protectant fungicide data, percent control
Procedure, shortened: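 Compounds in acetone-methanol-water (1:1:2) sprayed onto cucumber cv. "Bush Champion" (cotyledons plus one true leaf, 13 days old), dried 4 h. Inoculated 1 day later with 2×10^5 spores/ml; disease control (%) rated after 7 days in greenhouse.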

Pyricularia oryzae = assay: whole plant or invertebrate; type: in vivo; details: 100 is total disease control, 0 is no disease control; for Rice Blast (RB) protectant fungicide data, percent control: 300 g/ha, greenhouse; for pest or weed control at 300 g/ha: Pyricularia oryzae, topical, 144 h, read-out: Rice Blast (RB) protectant fungicide data, percent control, protectant, 300 g/ha, greenhouse
Two-Spotted Spider Mite = assay: Protocol 1 Two-Spotted Spider Mite (MTA) foliar spray test; type: in vivo, Tetranychus urticae; details: percentage of mites killed 1-day post-treatment
Protocol: (§1) A test solution containing 1250 parts per million (ppm) was prepared by dissolving the test compound in […] of a second solvent (acetone: water, 1:1) to give an acetone:water: methanol system of 50: 40:10.
(§2) The enclosed spraying chamber consisted of a single spray nozzle mounted on a boom moving at a fixed speed and distance over stationary targets. The vertical distance from the nozzle tip to the targets was adjusted to give rates varying from 150 g/ha to 600 g/ha
A pad of moistened cotton was placed in a Petri dish. A 1-inch square section cut from a fully expanded primary lima bean (Phaseolus limensis) leaf was positioned bottom side up on the moist cotton. The leaf square was infested with approximately 50 adult female mites. The dishes were sprayed with the test solutions and held at 27° C. for mortality determination 1-day post-treatment. The percentage of mites killed were rated from 100% (all dead) to 0% (all alive).

Southern Armyworm = assay: Protocol 1 Southern Armyworm (AW) foliar spray test; type: in vivo, Spodoptera eridania
Protocol: as §1, §2
Individual fully expanded primary lima bean (Phaseolus limensis) leaves were placed bottom side up on moistened pieces of filter paper in Petri dishes. The leaves were sprayed with the test solutions and allowed to dry. The dishes were infested with 5 third instar larvae of the southern armyworm, covered with the lids, and held at 27° C. Armyworm control was rated by visual inspection after 48 hours. […] A rating of 0 indicated no dead larvae and normal feeding. Intermediate control was indicated by intermediate ratings.

Mexican Bean Beetle = assay: Protocol 1 Mexican Bean Beetle (BB) foliar spray test; type: in vivo, Epilachna verivestis; details: control rated after 48 hours (100 = all larvae dead)
Protocol: as §1, §2
Individual fully expanded primary lima bean (Phaseolus limensis) leaves were placed bottom side up on moistened pieces of filter paper in Petri dishes. The leaves were sprayed with the test solutions and allowed to dry. The dishes were infested with 5 third instar larvae of the mexican bean beetle, covered with the lids, and held at 27° C. Bean beetle control was rated by visual inspection after 48 hours. […] A rating of 0 indicated no dead larvae and normal feeding. Intermediate control was indicated by intermediate ratings.

Row | Compound | Cucumber Powdery Mildew (CPM) protectant fungicide data, percent control (Sphaerotheca fuliginea) | Rice Blast (RB) protectant fungicide data, percent control (Pyricularia oryzae) | MTA (Two-Spotted Spider Mite; Protocol 1, DOSE 150) | further results
1 | O=C1CNC(c2cc(Cl)ccc2Cl)=NN1CC(F)(F)F [Compound 70] | 80 percent control | 80 percent control | 71% | 
2 | C[Si](C)(C)Cn1nc(-c2ccc(Cl)cc2)ncc1=O [Compound 265] | 90 percent control | 85 percent control | 0% | 
3 | Cn1nc(-c2ccccc2)ncc1=O [compound 242] |  |  |  | AW (Southern Armyworm; Protocol 1, DOSE 300): 0; MTA (Two-Spotted Spider Mite; Protocol 1, DOSE 300): 100%; BB (Mexican Bean Beetle; Protocol 1, DOSE 300): 90
4 | O=C1CNC(c2ccc(Cl)cc2)=NN1CC(F)(F)F [Compound 4, 1-(2,2,2-trifluoroethyl)-3-(4-chlorophenyl)-4,5-dihydro-1,2,4-triazin-6-one] |  |  |  | pest or weed control at 300 g/ha (Sphaerotheca fuliginea): 50%; pest or weed control at 300 g/ha (Pyricularia oryzae): 99%; AW (Southern Armyworm; Protocol 1, DOSE 300): 75; BB (Mexican Bean Beetle; Protocol 1, DOSE 300): 0
5 | CCN1N=C(c2ccc(Cl)c(Cl)c2)NCC1=O [Compound 100] | 80 percent control | 99 percent control | 25% | 
6 | CCCCN1N=C(c2ccc(Cl)c(Cl)c2)NCC1=O [Compound 101] | 80 percent control | 100 percent control | 0% | 
7 | CCCCn1nc(-c2ccc(Cl)c(Cl)c2)ncc1=O [Compound 270] | 95 percent control | 100 percent control | 0% | 
8 | CCCCCCn1nc(-c2ccc(Cl)cc2)ncc1=O [Compound 262] | 80 percent control | 85 percent control | 0% | 
9 | CCCCCCCCn1nc(-c2ccc(Cl)cc2)ncc1=O [Compound 259] | 75 percent control | 90 percent control | 0% | 
10 | CCCCCCCCCCn1nc(-c2ccc(Cl)cc2)ncc1=O [Compound 260] | 0 percent control | 75 percent control | 0% | 
11 | O=c1cnc(-c2ccc(Cl)cc2)nn1Cc1ccc(Cl)s1 [Compound 266] | 50 percent control | 90 percent control | 0% | 
12 | C=CCOC(=O)N1CC(=O)N(CCCC)N=C1c1cc(Cl)cc(Cl)c1 [Compound 135] | 50 percent control | 90 percent control | 43% | 
13 | O=C1CNC(c2ccc(Cl)c(Cl)c2)=NN1Cc1ccccc1 [Compound 103] | 0 percent control | 90 percent control | 23% | 
14 | Cc1nc(-c2ccc(Cl)cc2)nn(CC(F)(F)F)c1=O [compound 239] |  |  |  | AW (Southern Armyworm; Protocol 1, DOSE 300): 0; MTA (Two-Spotted Spider Mite; Protocol 1, DOSE 300): 0%; BB (Mexican Bean Beetle; Protocol 1, DOSE 300): 75
15 | CC(C)(C)N1N=C(c2ccc(Cl)cc2)NCC1=O [Compound 6, 1-t-Butyl-3-(4-chlorophenyl)-4,5-dihydro-1,2,4-triazin-6-one] |  |  |  | pest or weed control at 300 g/ha (Sphaerotheca fuliginea): 50%; pest or weed control at 300 g/ha (Pyricularia oryzae): 90%; AW (Southern Armyworm; Protocol 1, DOSE 300): 0; BB (Mexican Bean Beetle; Protocol 1, DOSE 300): 100
16 | O=C1CNC(c2ccc(Cl)cc2)=NN1 [Compound 5, 3-(4-Chlorophenyl)-4,5-dihydro-1,2,4-triazin-6-one] |  |  |  | pest or weed control at 300 g/ha (Sphaerotheca fuliginea): 50%; pest or weed control at 300 g/ha (Pyricularia oryzae): 75%; AW (Southern Armyworm; Protocol 1, DOSE 600): 50; BB (Mexican Bean Beetle; Protocol 1, DOSE 300): 75
17 | CCCCn1nc(-c2cc(Cl)cc(Cl)c2)ncc1=O [Compound 271] | 50 percent control | 99 percent control | 93% | 
18 | C=COC(=O)N1CC(=O)N(CCCC)N=C1c1cc(Cl)cc(Cl)c1 [Compound 127] | 50 percent control | 95 percent control | 95% | 
19 | O=c1cnc(-c2ccccc2)nn1CC(F)(F)F [Compound 7, 1-(2,2,2-trifluoroethyl)-3-phenyl-1,2,4-triazin-6-one] |  |  |  | pest or weed control at 300 g/ha (Sphaerotheca fuliginea): 75%; pest or weed control at 300 g/ha (Pyricularia oryzae): 95%; AW (Southern Armyworm; Protocol 1, DOSE 300): 0; BB (Mexican Bean Beetle; Protocol 1, DOSE 300): 100
20 | CCC#CCn1nc(-c2ccc(Cl)cc2)ncc1=O [Compound 8, 1-(2-pentynyl)-3-(4-chlorophenyl)-1,2,4-triazin-6-one] |  |  |  | pest or weed control at 300 g/ha (Sphaerotheca fuliginea): 90%; pest or weed control at 300 g/ha (Pyricularia oryzae): 99%; AW (Southern Armyworm; Protocol 1, DOSE 300): 0; BB (Mexican Bean Beetle; Protocol 1, DOSE 300): 0
21 | O=c1cnc(-c2ccc(Cl)cc2)nn1C1CCCCC1 [Compound 256] |  | 95 percent control | 90% | AW (Southern Armyworm; Protocol 1, DOSE 150): 0; BB (Mexican Bean Beetle; Protocol 1, DOSE 150): 0
22 | Cc1cccc(N2N=C(c3cccc(Cl)c3)NCC2=O)c1 [Compound 112] | 80 percent control | 85 percent control | 0% | 
23 | O=C1CNC(c2cc(Cl)cc(Cl)c2)=NN1CC1CC1 [Compound 109] | 95 percent control | 100 percent control | 90% | 
24 | C#CCOC(=O)N1CC(=O)N(CCCC)N=C1c1cc(Cl)cc(Cl)c1 [Compound 133] | 0 percent control | 80 percent control | 0% | 
25 | O=C1CNC(c2cc3ccccc3s2)=NN1CC(F)(F)F [Compound 163] | 0 percent control | 90 percent control | 100% | 
26 | CN1CC(=O)N(CC(F)(F)F)N=C1c1ccccc1 [Compound 34] |  |  |  | AW (Southern Armyworm; Protocol 1, DOSE 300): 0; MTA (Two-Spotted Spider Mite; Protocol 1, DOSE 300): 0%; BB (Mexican Bean Beetle; Protocol 1, DOSE 300): 75
27 | COC(=O)C(=O)N1CC(=O)N(CC(F)(F)F)N=C1c1cc(Cl)cc(Cl)c1 [Compound 123] | 50 percent control | 95 percent control | 0% | 
28 | CCCSC1NC(c2ccc(Cl)cc2)=NN(CC(F)(F)F)C1=O (stereo not shown) [Compound 19, 1-(2,2,2-trifluoroethyl)-3-(4-chlorophenyl)-5-propylthio-4,5-dihydro-1,2,4-triazin-6-one] |  |  |  | pest or weed control at 300 g/ha (Sphaerotheca fuliginea): 75%; pest or weed control at 300 g/ha (Pyricularia oryzae): 100%; AW (Southern Armyworm; Protocol 1, DOSE 150): 0; BB (Mexican Bean Beetle; Protocol 1, DOSE 150): 100
29 | CCCCN1N=C(c2cccc(Cl)c2)NCC1=O [Compound 110] | 90 percent control | 99 percent control | 100% | 
